In article PMC8539420, “Discovery of a Potent and Selective JNK3 Inhibitor with Neuroprotective Effect Against Amyloid β-Induced Neurotoxicity in Primary Rat Neurons” (International Journal of Molecular Sciences, 2021):

Experiments:
[1] = target: T1, Aurora A (Homo sapiens, UniProt O14965); assay: Kinase panel screening 1 μM; format: biochemical; settings: read-out: enzymatic inhibition Aurora A
T1 construct: purchased Reaction Biology Corp. (Kinase HotSpot)

[2] = test system: primary rat cortical neuron; assay: Cell viability (MTT) from Aβ-induced neurotoxicity; format: cell-based; settings: for Neuroprotection: Aβ-induced primary rat cortical neuronal death
From the text: To establish whether the derived selective JNK3 inhibitor actually has the ability to protect neurons from amyloid β-induced neuronal cell death, which is known as the pathogenesis of Alzheimer’s disease, we performed cytotoxicity experiments using Aβ 42, which is known as the most toxic fragment of the amyloid protein. The amyloid-β is known to mainly cause apoptosis during cell death, so it was confirmed whether the derived selective JNK3 inhibitors affect the activation (cleavage) of caspase-3, which are apoptosis-related signaling substances. […] This means that selective JNK3 inhibitors can inhibit apoptosis signaling by amyloid-β in neurons, thereby inhibiting apoptosis. Additionally, we confirmed that JNK activation was induced by amyloid-β in neurons, and the derived selective JNK3 inhibitors could inhibit JNK activation induced by amyloid-β. […] Then, the experiments for JNK3 inhibitors’ effect on the viability of neurons were conducted for five 6-dihydroxy benzimidazoles (35a-35e) by comparing it with previously published resveratrol as a positive control. On the 5th day of rat primary cortical neuron differentiation, each compound was pre-treated for 90 min and then treated with 10 μM Aβ 42 (HIFP-treated) for 24 or 48 h, and cell viability was measured by MTT assay.
In initial experiments, rat hippocampal cells grown in serum-free neurobasal media containing B27 supplements at day 6 were treated with different concentrations of Aβ1–42 or Aβ1–40 for 24 h and then the cell viability was measured by colorimetric MTT assay. Aggregated Aβ1–42 and Aβ1–40 caused up to 40–60% cell death at concentrations ranging from […]. […] Resveratrol was active against various amyloid-related peptides including Aβ1–42, the most neurotoxic amyloid derivative present in the AD brain. […] Primary Rat Cortex Neurons, Sprague Dawley (Gibco, A36512, Fisher Scientific, Göteborg, Sweden), were cultured in Neurobasal™ Plus culture medium (Gibco, A3582901 Fisher Scientific, Göteborg, Sweden), supplemented with B-27™ Supplement (Gibco, A3582801 Fisher Scientific, Göteborg, Sweden) and 0.5 mM GlutaMAX™ Supplement (Gibco, 35050061 Fisher Scientific, Göteborg, Sweden) at 37 °C in a humidified 5% CO2 atmosphere. We plated –2 × 10^5 live cells per well in a poly-D-lysine/laminin coated 24-well plate. For neural differentiation, half of the medium was replaced with fresh complete medium every third day. On day 6, we removed half the volume of media from the culture plate, added an equal amount of complete culture media containing test compounds or vehicle to each well, and incubated them for 90 min at 37 °C and 5% CO2. Immediately prior to use, amyloid β-Protein (1–42) (HFIP-treated) (Bachem, 4090148.0100) was dissolved in 1% NH4OH, further diluted with culture medium, and added into the plates to a final concentration of 10 μM. Cells were incubated for 24 h with vehicle control or test compounds in the presence or absence of Aβ42. Cell viability was measured using the MTT [3-(4, 5-dimethylthiazol-2-yl)-2,5-diphenyltetrazolium bromide] assay. MTT solution was added into each well at a final concentration of 0.5 mg/mL, and cells were incubated at 37 °C for 4 h. The absorbance was detected at 540 nm (reference 650 nm) with a microplate reader. All results were normalized to OD values measured from the vehicle control (DMSO). […]
Primary Rat Cortex Neurons, Sprague Dawley (Gibco, A36512) were cultured in Neurobasal™ Plus culture medium (Gibco, A3582901), supplemented with B-27™ Supplement (Gibco, A3582801) and 0.5mM GlutaMAX™ Supplement (Gibco, 35050061) at 37 °C in a humidified 5% CO2 atmosphere. Plate ~2 × 10^5 live cells per well in a poly-D-lysine/laminin coated 24-well plate. For neural differentiation, half of the medium was replaced with fresh complete medium every third day. On day 6, remove half the volume of media from the culture plate and add an equal amount of complete culture media […]

[3] = target: T2, c-Kit (Homo sapiens, UniProt P10721); assay: Kinase panel screening 1 μM; format: biochemical; settings: read-out: enzymatic inhibition c-Kit
T2 construct: purchased Reaction Biology Corp. (Kinase HotSpot)
T2 sequence (P10721 26-976): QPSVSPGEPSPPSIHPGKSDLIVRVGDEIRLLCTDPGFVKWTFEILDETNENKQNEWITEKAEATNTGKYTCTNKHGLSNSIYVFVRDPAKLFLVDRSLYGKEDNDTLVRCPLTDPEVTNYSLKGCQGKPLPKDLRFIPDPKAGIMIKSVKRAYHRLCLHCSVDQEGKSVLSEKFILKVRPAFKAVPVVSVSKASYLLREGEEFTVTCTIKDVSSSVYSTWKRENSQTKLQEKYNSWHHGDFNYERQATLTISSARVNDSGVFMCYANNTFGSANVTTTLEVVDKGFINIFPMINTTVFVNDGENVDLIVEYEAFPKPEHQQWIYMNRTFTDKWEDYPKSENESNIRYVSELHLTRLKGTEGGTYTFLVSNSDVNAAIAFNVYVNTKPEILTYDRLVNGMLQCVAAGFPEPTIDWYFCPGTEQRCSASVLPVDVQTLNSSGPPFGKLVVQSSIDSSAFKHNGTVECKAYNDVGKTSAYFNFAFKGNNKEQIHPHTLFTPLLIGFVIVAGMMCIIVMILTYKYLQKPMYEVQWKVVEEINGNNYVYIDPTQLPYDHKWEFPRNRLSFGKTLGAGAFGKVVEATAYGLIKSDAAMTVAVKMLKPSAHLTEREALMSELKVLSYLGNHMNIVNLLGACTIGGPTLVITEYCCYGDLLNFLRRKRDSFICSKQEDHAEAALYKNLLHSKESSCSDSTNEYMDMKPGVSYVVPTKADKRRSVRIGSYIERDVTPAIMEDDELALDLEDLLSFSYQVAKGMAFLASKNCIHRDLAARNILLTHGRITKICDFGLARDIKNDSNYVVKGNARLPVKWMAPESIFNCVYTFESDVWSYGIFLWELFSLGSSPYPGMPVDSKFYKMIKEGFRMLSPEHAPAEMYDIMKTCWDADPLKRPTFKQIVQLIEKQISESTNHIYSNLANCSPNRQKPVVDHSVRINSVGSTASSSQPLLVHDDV

[4] = target: T3, ERK1 (Homo sapiens, UniProt P27361); assay: Kinase panel screening 1 μM; format: biochemical; settings: read-out: enzymatic inhibition ERK1
T3 construct: purchased Reaction Biology Corp. (Kinase HotSpot)

[5] = target: T4, JNK3(h) (Homo sapiens, UniProt P53779); assay: Kinase HotSpot radiometric assay, JNK3; format: biochemical
T4 construct: purchased Reaction Biology Corp
T4 sequence (P53779 whole entry): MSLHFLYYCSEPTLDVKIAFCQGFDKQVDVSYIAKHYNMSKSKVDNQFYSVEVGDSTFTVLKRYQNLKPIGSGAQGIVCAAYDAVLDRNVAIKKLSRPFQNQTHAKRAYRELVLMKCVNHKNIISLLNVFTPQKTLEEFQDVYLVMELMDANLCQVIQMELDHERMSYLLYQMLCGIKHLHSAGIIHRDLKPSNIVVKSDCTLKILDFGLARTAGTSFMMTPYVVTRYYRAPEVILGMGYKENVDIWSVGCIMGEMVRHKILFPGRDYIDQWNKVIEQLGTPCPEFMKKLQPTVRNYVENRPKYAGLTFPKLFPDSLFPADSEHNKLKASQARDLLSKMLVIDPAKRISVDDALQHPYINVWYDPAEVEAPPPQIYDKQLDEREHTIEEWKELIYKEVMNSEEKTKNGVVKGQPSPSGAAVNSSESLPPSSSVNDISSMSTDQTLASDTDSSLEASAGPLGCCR

[6] = target: T5, PDK1/PDHK1 (Homo sapiens, UniProt Q15118); assay: Kinase panel screening 1 μM; format: biochemical; settings: read-out: enzymatic inhibition PDK1/PDHK1
T5 construct: purchased Reaction Biology Corp. (Kinase HotSpot)

[7] = target: T6, BTK (Homo sapiens, UniProt Q06187); assay: Kinase panel screening 1 μM; format: biochemical; settings: read-out: enzymatic inhibition BTK
T6 construct: purchased Reaction Biology Corp. (Kinase HotSpot)
T6 sequence (Q06187 whole entry): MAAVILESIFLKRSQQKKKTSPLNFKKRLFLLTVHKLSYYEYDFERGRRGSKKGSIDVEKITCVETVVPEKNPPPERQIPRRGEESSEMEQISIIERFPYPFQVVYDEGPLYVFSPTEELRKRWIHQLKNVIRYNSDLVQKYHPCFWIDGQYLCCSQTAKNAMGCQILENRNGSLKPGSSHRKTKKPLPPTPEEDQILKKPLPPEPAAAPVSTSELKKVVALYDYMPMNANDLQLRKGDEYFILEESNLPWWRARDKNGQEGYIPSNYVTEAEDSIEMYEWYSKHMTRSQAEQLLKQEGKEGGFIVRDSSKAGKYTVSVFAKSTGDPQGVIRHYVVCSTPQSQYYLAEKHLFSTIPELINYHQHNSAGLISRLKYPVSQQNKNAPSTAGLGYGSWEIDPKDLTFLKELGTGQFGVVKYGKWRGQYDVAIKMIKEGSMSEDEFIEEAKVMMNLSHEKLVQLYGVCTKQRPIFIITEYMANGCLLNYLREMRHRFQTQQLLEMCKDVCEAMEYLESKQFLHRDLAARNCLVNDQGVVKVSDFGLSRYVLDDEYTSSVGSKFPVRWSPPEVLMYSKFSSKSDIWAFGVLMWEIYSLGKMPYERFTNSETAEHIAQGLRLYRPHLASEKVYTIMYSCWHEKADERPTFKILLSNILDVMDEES

[8] = target: T7, TRKC (Homo sapiens, UniProt Q16288); assay: Kinase panel screening 1 μM; format: biochemical; settings: read-out: enzymatic inhibition TRKC
T7 construct: purchased Reaction Biology Corp. (Kinase HotSpot)
T7 sequence (Q16288 32-839): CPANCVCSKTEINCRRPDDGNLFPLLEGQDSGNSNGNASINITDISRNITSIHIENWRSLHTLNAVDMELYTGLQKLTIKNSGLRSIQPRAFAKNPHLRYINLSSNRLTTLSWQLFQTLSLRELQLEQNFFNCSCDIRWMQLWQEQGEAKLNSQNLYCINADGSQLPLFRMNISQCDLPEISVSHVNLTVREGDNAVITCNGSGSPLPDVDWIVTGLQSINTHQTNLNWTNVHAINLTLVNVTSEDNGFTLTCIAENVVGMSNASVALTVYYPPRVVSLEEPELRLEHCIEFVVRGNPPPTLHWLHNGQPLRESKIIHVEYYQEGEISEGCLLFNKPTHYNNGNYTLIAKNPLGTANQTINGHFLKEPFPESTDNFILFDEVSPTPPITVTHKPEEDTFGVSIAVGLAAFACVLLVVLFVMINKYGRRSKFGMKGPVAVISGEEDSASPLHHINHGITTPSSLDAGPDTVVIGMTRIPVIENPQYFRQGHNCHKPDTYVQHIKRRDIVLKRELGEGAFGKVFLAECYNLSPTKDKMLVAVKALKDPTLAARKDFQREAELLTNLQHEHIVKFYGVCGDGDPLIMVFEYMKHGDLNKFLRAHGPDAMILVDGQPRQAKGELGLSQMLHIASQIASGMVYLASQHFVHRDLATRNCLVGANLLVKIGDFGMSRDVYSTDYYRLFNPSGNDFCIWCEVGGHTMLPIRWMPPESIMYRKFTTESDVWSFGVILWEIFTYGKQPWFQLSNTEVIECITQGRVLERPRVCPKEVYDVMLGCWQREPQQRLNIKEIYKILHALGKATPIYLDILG

[9] = target: T8, AXL (Homo sapiens, UniProt P30530); assay: Kinase panel screening 1 μM; format: biochemical; settings: read-out: enzymatic inhibition AXL
T8 construct: purchased Reaction Biology Corp. (Kinase HotSpot)

[10] = target: T9, ROS/ROS1 (Homo sapiens, UniProt P08922); assay: Kinase panel screening 1 μM; format: biochemical; settings: read-out: enzymatic inhibition ROS/ROS1
T9 construct: purchased Reaction Biology Corp. (Kinase HotSpot)

[11] = target: T10, AXL (R499C) (Homo sapiens, UniProt P30530, R499C); assay: Kinase panel screening 1 μM; format: biochemical; settings: read-out: enzymatic inhibition AXL (R499C)
T10 construct: purchased Reaction Biology Corp. (Kinase HotSpot)

[12] = target: T11, CAMKK1 (Homo sapiens, UniProt Q8N5S9); assay: Kinase panel screening 1 μM; format: biochemical; settings: read-out: enzymatic inhibition CAMKK1
T11 construct: purchased Reaction Biology Corp. (Kinase HotSpot)

[13] = target: T12, FMS (Homo sapiens, UniProt P07333); assay: Kinase panel screening 1 μM; format: biochemical; settings: read-out: enzymatic inhibition FMS
T12 construct: purchased Reaction Biology Corp. (Kinase HotSpot)
T12 sequence (P07333 20-972): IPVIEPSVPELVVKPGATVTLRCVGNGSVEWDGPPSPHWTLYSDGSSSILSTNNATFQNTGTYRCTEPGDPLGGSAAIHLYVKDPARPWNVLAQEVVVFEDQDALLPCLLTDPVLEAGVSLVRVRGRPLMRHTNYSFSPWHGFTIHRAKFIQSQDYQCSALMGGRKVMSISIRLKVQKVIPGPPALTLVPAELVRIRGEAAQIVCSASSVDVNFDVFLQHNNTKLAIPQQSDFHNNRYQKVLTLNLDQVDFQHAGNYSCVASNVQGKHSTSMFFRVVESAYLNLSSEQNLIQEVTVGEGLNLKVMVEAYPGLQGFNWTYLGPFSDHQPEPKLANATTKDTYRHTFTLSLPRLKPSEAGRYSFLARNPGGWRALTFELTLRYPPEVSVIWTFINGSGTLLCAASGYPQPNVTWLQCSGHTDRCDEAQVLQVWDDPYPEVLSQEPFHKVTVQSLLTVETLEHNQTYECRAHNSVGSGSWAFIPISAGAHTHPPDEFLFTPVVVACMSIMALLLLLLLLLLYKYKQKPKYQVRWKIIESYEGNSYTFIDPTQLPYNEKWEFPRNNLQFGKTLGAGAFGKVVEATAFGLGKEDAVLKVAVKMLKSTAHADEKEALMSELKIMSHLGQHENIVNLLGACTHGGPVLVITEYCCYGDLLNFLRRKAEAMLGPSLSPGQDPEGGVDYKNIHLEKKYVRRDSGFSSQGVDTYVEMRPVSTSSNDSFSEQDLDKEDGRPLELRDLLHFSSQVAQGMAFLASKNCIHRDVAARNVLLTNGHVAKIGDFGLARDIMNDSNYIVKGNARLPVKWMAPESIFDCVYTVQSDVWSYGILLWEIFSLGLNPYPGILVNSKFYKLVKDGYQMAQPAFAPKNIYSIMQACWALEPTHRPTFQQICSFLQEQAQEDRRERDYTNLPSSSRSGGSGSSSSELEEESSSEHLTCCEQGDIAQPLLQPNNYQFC

[14] = test system: over 38 kinases; assay: Kinase panel screening, single dose 1 μM, whole panel; format: biochemical; settings: duplicate
[15] = target: T13, FYN (Homo sapiens, UniProt P06241); assay: Kinase panel screening 1 μM; format: biochemical; settings: read-out: enzymatic inhibition FYN
T13 construct: purchased Reaction Biology Corp. (Kinase HotSpot)
T13 sequence (P06241 whole entry): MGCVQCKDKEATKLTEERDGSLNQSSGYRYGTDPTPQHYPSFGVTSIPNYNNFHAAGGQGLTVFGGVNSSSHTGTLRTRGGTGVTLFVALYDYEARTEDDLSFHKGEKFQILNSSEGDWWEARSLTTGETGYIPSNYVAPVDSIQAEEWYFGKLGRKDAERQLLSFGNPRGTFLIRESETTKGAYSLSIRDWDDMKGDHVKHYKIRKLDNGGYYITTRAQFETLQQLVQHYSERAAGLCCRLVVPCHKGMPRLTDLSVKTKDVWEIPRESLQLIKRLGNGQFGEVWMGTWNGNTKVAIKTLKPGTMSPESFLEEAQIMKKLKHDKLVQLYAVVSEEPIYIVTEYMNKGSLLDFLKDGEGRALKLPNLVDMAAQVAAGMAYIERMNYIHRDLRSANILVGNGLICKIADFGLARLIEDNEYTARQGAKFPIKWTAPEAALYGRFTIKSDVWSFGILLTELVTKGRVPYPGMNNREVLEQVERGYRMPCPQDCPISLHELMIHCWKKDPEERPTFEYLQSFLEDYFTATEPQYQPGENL

[16] = target: T14, AKT1 (Homo sapiens, UniProt P31749); assay: Kinase panel screening 1 μM; format: biochemical; settings: read-out: enzymatic inhibition AKT1
T14 construct: purchased Reaction Biology Corp. (Kinase HotSpot)

[17] = target: T15, LCK (Homo sapiens, UniProt P06239); assay: Kinase panel screening 1 μM; format: biochemical; settings: read-out: enzymatic inhibition LCK
T15 construct: purchased Reaction Biology Corp. (Kinase HotSpot)

[18] = target: T16, PLK1 (Homo sapiens, UniProt P53350); assay: Kinase panel screening 1 μM; format: biochemical; settings: read-out: enzymatic inhibition PLK1
T16 construct: purchased Reaction Biology Corp. (Kinase HotSpot)
T16 sequence (P53350 whole entry): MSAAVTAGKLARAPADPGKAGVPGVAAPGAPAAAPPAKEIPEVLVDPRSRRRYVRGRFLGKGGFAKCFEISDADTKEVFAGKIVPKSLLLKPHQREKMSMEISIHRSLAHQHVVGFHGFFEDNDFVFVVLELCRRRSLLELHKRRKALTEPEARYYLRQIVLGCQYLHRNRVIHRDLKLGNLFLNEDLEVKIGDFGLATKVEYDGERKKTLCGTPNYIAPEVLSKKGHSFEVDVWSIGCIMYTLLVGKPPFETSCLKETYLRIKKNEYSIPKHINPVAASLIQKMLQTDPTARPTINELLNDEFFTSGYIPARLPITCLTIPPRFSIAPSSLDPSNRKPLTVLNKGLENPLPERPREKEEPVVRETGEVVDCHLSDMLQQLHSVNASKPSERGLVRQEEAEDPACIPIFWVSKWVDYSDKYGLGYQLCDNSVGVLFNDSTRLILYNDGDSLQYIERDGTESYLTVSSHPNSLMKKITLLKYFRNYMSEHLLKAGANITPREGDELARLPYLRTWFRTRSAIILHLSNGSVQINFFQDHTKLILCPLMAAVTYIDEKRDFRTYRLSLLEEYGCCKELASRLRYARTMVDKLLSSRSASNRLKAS

- inhibition at 1 µM [1]: 25.6%
- inhibition at 1 µM [3]: 0%
- inhibition at 1 µM [4]: 0%
- inhibition at 1 µM ([5]; 1 μM, read-out: enzymatic inhibition JNK3): 90%
- IC50 ([5]; ATP 10 μM, substrate ATF2 5 μM, read-out: JNK3 inhibitory activity IC50): 9.7 nM
- inhibition at 1 µM [6]: 0%
- inhibition at 1 µM [7]: 9.53%
- inhibition at 1 µM [8]: 8.78%
- inhibition at 1 µM [9]: 6.37%
- inhibition at 1 µM [10]: 0%
- inhibition at 1 µM [11]: 0.64%
- inhibition at 1 µM [12]: 0%
- inhibition at 1 µM [13]: 8.11%
- inhibition activity for most other kinases [14]: less than 15%
- inhibition at 1 µM [15]: 18.3%
- inhibition at 1 µM [16]: 0%
- inhibition at 1 µM [17]: 7.63%
- inhibition at 1 µM [18]: 0%
Compound: O=C(C1CC1)N1CCC[C@H](Nc2nccc(-n3c(-c4ccc5c(c4)OCCO5)nc4cc(O)c(O)cc43)n2)C1 [35b, (S)-Cyclopropyl(3-((4-(2-(2,3-dihydrobenzo[b][1,4]dioxin-6-yl)-5,6-dihydroxy-1H-benzo[d]imidazol-1-yl)pyrimidin-2-yl)amino)piperidin-1-yl)methanone]
- Neuroprotection [2]: 95.7%
- Neuroprotection ([2]; listed as Present report): > 95.7 ± 2.9%
- Cell viability, Mean ([2]; pre-treated 90 min, then 10 μM Aβ42, MTT, normalized to vehicle control (DMSO), compound concentration not given): 95.7 ± 2.9%
